Each structure is given as a SMILES string.

For one test, the system named is Sprague Dawley rats. The test is described as follows: Alzheimer's disease model (amyloid β + ibotenic acid): step-through test. It counts as in vivo, rat. Particulars: for Step through test Error No: 18 mg/kg/day by gastric tube for two months, wrong responses in 5 min, * p < 0.05; for number of wrong responses in step-through test (in words): 18 mg/kg/day, 5 min. The text has this:
(§1) In addition the co-injection of amyloid β with a small amount of ibotenic acid into the rat hippocampus synergistically produces neuronal loss with infiltration of glial cells not only adjacent but also far from the injected site (Morimoto et al., 1998: Neuroscience, 84, 479-487).
(§2) Our studies used the method of Morimoto (Morimoto et al., 1998: Neuroscience, 84, 479-487) with some modifications (unilateral instead of bilateral injection). Three months old, Sprague Dawley rats, were randomly divided into different groups. Injection of amyloid β1-40 and ibotenic acid (both from Sigma) was accomplished by means of a stereotaxic instrument (Stoelting Co.) and the coordinates were AP=−0.5 mm […], L=−2.8 mm […], H=−7.0 mm (ventral to dura). The dose for each rat was amyloid β1-40 (4 μg) and ibotenic acid (1 μg) in 1 μl of saline. The injection was completed in 20 min, and the needle was withdrawn 10 min later. Then the skin was sutured.
(§3) Episarsasapogenin cathylate, sarsasapogenin cathylate, episarsasapogenin ethylsuccinate (comparison compound), episarsasapogenin, epismilagenin and diosgenin (all at a dosage of 18 mg/kg/day) were administered to animals as stable suspensions in CMC-Na (0.5%) once daily through a gastric tube. The control and the Alzheimer's model group were given the same volume of CMC-Na (0.5%) once daily. The drugs and vehicles were given for a period of two months, starting 20 days before operation.
The effect of test compounds on memory was assessed using the step-through test. A 60×15×15 cm box, divided into 2 equally sized rooms, one dark room with copper rod base, which was electrically charged (40 V ac) when in use, while the other was a light room but not electrically charged. Between the two rooms there is an opening (hole) for the rat to go through. The experiment is carried out for each rat on two consecutive days. The first day is for training; when the rat is adapted in the box for the first 3 min, then put in the light room, with its back toward the hole, and the copper rods of the dark room are charged for 5 min. The second day is for testing, when the number of crosses in 5 min are recorded. Improvements in memory are signalled by a reduction in the number of crosses.

In test [1] the test system is muscarinic receptor. The test is described as follows: Alzheimer's disease model (amyloid β + ibotenic acid): brain muscarinic receptor density by 3H-QNB. The format is in vivo, rat. Conditions: Alzheimer's model rats; for brain muscarinic receptor density (in words): 18 mg/kg/day; for Muscarinic receptor Density: 18 mg/kg/day by gastric tube for two months, * p < 0.05.
Excerpt: as §1, §2, §3
The brain samples were homogenised, centrifuged, and the pellet of centrifugation at 27000×g was re-homogenised and used for measurement. The concentration of ^3H-QNB was chosen at the saturation range. After incubation and separation, the bound portion was measured by liquid scintillation counter.

Test [2] has as its system muscarinic receptor. The experiment in a line: Muscarinic receptor density in brain of aged rats (dual-site competitive 3H-QNB binding). It counts as in vivo, rat. Conditions: 18 mg kg−1 day−1 in food for three months. The procedure:
(§4) Aged Sprague-Dawley rats aged were divided randomly into 4 groups, one control and groups treated for three months with either sarsasapogenin, episarsasapogenin cathylate or smilagenin (18 mg kg^−1 day^−1, n=10). A control group (n=14) of untreated young rats was also included in the study. The daily dose of drug was mixed in a minimum amount of food and was administered every morning separately to each rat.
Tissue preparation: Brains were removed quickly after decapitation, frozen in dry ice, and transferred to a freezer. The brains were homogenised and the pellet was finally suspended in buffer.
Dual-site competitive ligand binding assay: ^3H-QNB (quinuclinidyl benzilate) was used as the radio-ligand which was non-selective to M receptor subtypes in vitro. Pirenzipine was used as the selective non-radioactive competing agent. Protein concentration was determined by the micro-Lowry method.

Test [3] has as its system muscarinic receptor. The test is described as follows: Cell based assay: muscarinic receptor number in transfected CHO cells by [3H]NMS binding. The arrangement: species or system Chinese hamster. Particulars: CHO cells expressing muscarinic receptor. An excerpt: Chinese hamster ovary (CHO) cells transfected with a vector coding for a muscarinic receptor and/or beta adrenoreceptor. The cell line used for the majority of the experiments was a cell line expressing a muscarinic receptor.
The effects of epismilagenin cathylate, sarsasapogenin cathylate, episarsasapogenin cathylate, episarsasapogenin succinate, epismilagenin acetate and sarsasapogenin on the expression of m receptors in CHO cells transfected with vector for the m receptor were investigated. Receptor numbers were assayed using [^3H]NMS binding and subtracting non-specific binding. Compounds were dissolved in dimethyl sulphoxide (DMSO) and DMSO was used as a control.
Chinese hamster ovary (CHO) cells expressing high levels of muscarinic receptor (˜2.2 pmol mg protein^−1) were plated on a 24 well plate, 1 day before the start of the experiment. The culture medium was replaced with medium containing vehicle (DMSO) or the compounds.
The cells were incubated for 2/3 days, then after a medium change, cells were incubated for a further 2/3 days. The cells were incubated with a saturating concentration of labelled N-methyl-scopolamine, ([^3H]NMS). Cells were washed with ice cold phosphate-buffered saline (PBS) (3×) and bound [^3H]NMS determined by solubilising receptors with RIPA buffer followed by liquid scintillation counting.

For test [4], the system named is rat primary cortical neurons. The experiment in a line: Neuroprotection against glutamate-induced neurodegeneration (LDH release). The format is cell-based. Particulars: rat primary cortical cultures pre-treated for 24 h, read 24 h after glutamate. The procedure:
Rat cortical neurons were cultured for 10 days; at day 10 the medium was changed to a serum-free defined medium. On day 12, 24 hours before glutamate exposure, cultures were washed and medium was replaced with fresh medium containing positive control (β-oestradiol), test compounds (sarsasapogenin, episarsasapogenin cathylate or smilagenin) or vehicle control (DMSO, 0.25%).
On day 13, cultures were exposed to glutamate.
After the incubation period, the cultures were washed with and placed in fresh medium, supplemented with relevant compounds or vehicle to evaluate their protective effects, 24 h after glutamate exposure.
Neuronal cell survival was evaluated by measuring lactate dehydrogenase (LDH) activity released in the media 24 h after test compound treatment or glutamate+test compound exposure, using the CytoTox 96 non-radioactive kit and quantitated by measuring wavelength absorbance at 450 nm.
On the technique in general: LDH leaks from cells whose membrane has failed.

The subject of the next test is Aged Sprague-Dawley rats. The test is described as follows: Y-maze learning and memory test in aged rats. The format is in vivo, rat. Particulars: 18 mg kg−1 day−1 in food for three months. The procedure: as §4
A Y-maze apparatus was used for the learning and memory test. On the floor of each arm of the Y-maze is an array of copper rods to which electric current is applied whenever needed, with adjustable voltage. Each arm is 45 cm long and has a 15 W lamp at the end, which is turned on when needed. After 3 months drug administration, each rat was trained for 7 consecutive days, as follows. For each training session, the rat was put into one arm of the Y-maze, after two minutes rest, an electrical current was applied to the copper rods and the lamp of the clockwise arm was illuminated to indicate the non-stimulation area. If the rat went into that arm, one correct response was recorded, otherwise, one wrong response was recorded. This stimulation-response test was repeated 20 times each day, with a pause of 5 sec between each two consecutive tests. The number of correct responses following the twenty tests on the seventh day was used to express learning ability, (the higher the number the better the learning ability). The rats were then left resting for 30 days and the procedure was repeated once more. The number of correct responses of the 20 tests after the 30 day rest period was used to represent the memory ability

In the case of `C[C@@H]1CC[C@@]2(OC1)O[C@H]1C[C@H]3[C@@H]4CC=C5C[C@@H](O)CC[C@]5(C)[C@H]4CC[C@]3(C)[C@H]1[C@@H]2C` [diosgenin, reference compound], in the test on Sprague Dawley rats, the “Step through test Error No” value stood at 3.75 ± 1.49 and the “number of wrong responses in step-through test (in words)” value (“number of wrong responses” below) was “ineffective in decreasing the number of wrong responses”. In addition, in the test on muscarinic receptor [1], the “brain muscarinic receptor density (in words)” value is “did not significantly change the muscarinic receptor density” and the “Muscarinic receptor Density” value is 770 ± 68 fmol/mg/protein.
`CCOC(=O)O[C@@H]1CC[C@@]2(C)[C@H](CC[C@@H]3[C@@H]2CC[C@]2(C)[C@@H]4[C@H](C[C@@H]32)O[C@]2(CC[C@H](C)CO2)[C@H]4C)C1` [episarsasapogenin cathylate, 3-Ethoxycarbonyl 5β,20α,22α,25S-spirostan-3α-ol]: in the test with muscarinic receptor [2], the “muscarinic receptor number in brain” value is on record as “significantly restored the muscarinic receptor number”. For the same compound, in the test with Sprague Dawley rats, the “Step through test Error No” value is 1.36 ± 0.92* and the “number of wrong responses” value is recorded as “significantly decreased the number of wrong responses”. In addition, in the test on muscarinic receptor [1], the “brain muscarinic receptor density (in words)” value is on record as “significant elevation in brain muscarinic receptor density” and the “Muscarinic receptor Density” value is recorded as 877 ± 89* fmol/mg/protein. In addition, the “effect on decrease in muscarinic receptor number over the culturing period” value (from here on “effect on decrease”) in the test on muscarinic receptor [3] was “prevents the decrease in muscarinic receptor number”. In addition, the “glutamate-induced neurodegeneration (LDH release)” value in test [4] is “significant reduction in the glutamate-induced neurodegeneration”. Moreover, the “learning and memory ability (Y-maze)” value in the test on Aged Sprague-Dawley rats was “restored the learning and memory ability”.
Regarding `CCOC(=O)CCC(=O)OC1CCC2(C)C(CCC3C2CCC2(C)C3CC3OC4(CCC(C)CO4)C(C)C32)C1` (centres unmarked) [episarsasapogenin ethylsuccinate, reference compound], in the test on Sprague Dawley rats, the “Step through test Error No” value stood at 3.73 ± 1.35 and the “number of wrong responses” value is “ineffective in decreasing the number of wrong responses”. In addition, in the test on muscarinic receptor [1], the “brain muscarinic receptor density (in words)” value is “did not significantly change the muscarinic receptor density” and the “Muscarinic receptor Density” value is 774 ± 79 fmol/mg/protein.
As to `CC1CCC2(OC1)OC1CC3C4CCC5CC(OC(=O)CCC(=O)O)CCC5(C)C4CCC3(C)C1C2C` (stereo not drawn) [episarsasapogenin succinate, mono-3α,5β,20α,22α,25S-spirostanyl succinate], the “effect on decrease” value in the test with muscarinic receptor [3] is given as “prevents the decrease in muscarinic receptor number”.
For `C[C@H]1CC[C@@]2(OC1)O[C@H]1C[C@H]3[C@@H]4CC[C@@H]5C[C@H](O)CC[C@]5(C)[C@H]4CC[C@]3(C)[C@H]1[C@@H]2C` [episarsasapogenin], in the test with Sprague Dawley rats, the “Step through test Error No” value is 1.50 ± 1.18* and the “number of wrong responses” value is given as “significantly decreased the number of wrong responses”. Further, in the test on muscarinic receptor [1], the “brain muscarinic receptor density (in words)” value is on record as “significant elevation in brain muscarinic receptor density” and the “Muscarinic receptor Density” value is reported as 869 ± 104* fmol/mg/protein.
With `CCOC(=O)O[C@@H]1CC[C@@]2(C)[C@H](CC[C@@H]3[C@@H]2CC[C@]2(C)[C@@H]4[C@H](C[C@@H]32)O[C@]2(CC[C@@H](C)CO2)[C@H]4C)C1` [epismilagenin cathylate, 3-Ethoxycarbonyl 5β,20α,22α,25R-spirostan-3α-ol], the “effect on decrease” value in the test on muscarinic receptor [3] is “prevents the decrease in muscarinic receptor number”.
Consider `C[C@@H]1CC[C@@]2(OC1)O[C@H]1C[C@H]3[C@@H]4CC[C@@H]5C[C@H](O)CC[C@]5(C)[C@H]4CC[C@]3(C)[C@H]1[C@@H]2C` [epismilagenin], for which, in the test with Sprague Dawley rats, the “Step through test Error No” value is given as 1.73 ± 0.91* and the “number of wrong responses” value is reported as “significantly decreased the number of wrong responses”. In addition, in the test on muscarinic receptor [1], the “brain muscarinic receptor density (in words)” value is listed as “significant elevation in brain muscarinic receptor density” and the “Muscarinic receptor Density” value was 877 ± 90* fmol/mg/protein.
Regarding `CCOC(=O)O[C@H]1CC[C@@]2(C)[C@H](CC[C@@H]3[C@@H]2CC[C@]2(C)[C@@H]4[C@H](C[C@@H]32)O[C@]2(CC[C@H](C)CO2)[C@H]4C)C1` [sarsasapogenin cathylate, 3-Ethoxycarbonyl 5β,20α,22α,25S-spirostan-3-β-ol], in the test with Sprague Dawley rats, the “Step through test Error No” value is reported as 1.36 ± 1.03* and the “number of wrong responses” value is “significantly decreased the number of wrong responses”. Moreover, in the test on muscarinic receptor [1], the “brain muscarinic receptor density (in words)” value is reported as “significant elevation in brain muscarinic receptor density” and the “Muscarinic receptor Density” value was 916 ± 158* fmol/mg/protein. Moreover, the “effect on decrease” value in the test on muscarinic receptor [3] is given as “prevents the decrease in muscarinic receptor number”.
For the compound `C[C@H]1CC[C@@]2(OC1)O[C@H]1C[C@H]3[C@@H]4CC[C@@H]5C[C@@H](O)CC[C@]5(C)[C@H]4CC[C@]3(C)[C@H]1[C@@H]2C` [sarsasapogenin], in the test on muscarinic receptor [2], the “muscarinic receptor number in brain” value was “significantly restored the muscarinic receptor number”. Besides, the “effect on decrease” value with muscarinic receptor [3] is on record as “prevents the decrease in muscarinic receptor number”. Further, in test [4], the “glutamate-induced neurodegeneration (LDH release)” value was “significant reduction in the glutamate-induced neurodegeneration”. For the same compound, the “learning and memory ability (Y-maze)” value with Aged Sprague-Dawley rats is “restored the learning and memory ability”.
As for `C[C@@H]1CC[C@@]2(OC1)O[C@H]1C[C@H]3[C@@H]4CC[C@@H]5C[C@@H](O)CC[C@]5(C)[C@H]4CC[C@]3(C)[C@H]1[C@@H]2C` [smilagenin], the “muscarinic receptor number in brain” value in the test on muscarinic receptor [2] is “significantly restored the muscarinic receptor number”. Also, the “glutamate-induced neurodegeneration (LDH release)” value in test [4] was “significant reduction in the glutamate-induced neurodegeneration”. In addition, the “learning and memory ability (Y-maze)” value with Aged Sprague-Dawley rats is “restored the learning and memory ability”.

The values are drawn from patent publication US20040147495A1, “Sapogenin derivatives, their synthesis and use, and methods based upon their use” (priority 2001, published 2004).
